Measurements as given in patent US12077503B2, “Substituted cyclic amides and their use as herbicides” (FMC CORPORATION, priority 2015, dated 2024).

Assays:
Assay type in all cases: in vivo
[1] = test system: wheat (Triticum aestivum); assay: Test A postemergence; settings: Triticum aestivum, post-emergence, 240 h
How it was run: (§1)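 Treatment is preemergence as a directed soil spray after planting, or postemergence at the one- to two-leaf stage, with test chemical in a non-phytotoxic solvent mixture plus surfactant. Plants stay in the greenhouse about 10 d before visual injury scoring on a 0 to 100 scale versus untreated controls.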

[2] = test system: ryegrass, Italian (Italian ryegrass, Lolium multiflorum); assay: Test A postemergence; settings: Lolium multiflorum, post-emergence, 240 h
How it was run: as §1

corn (Zea mays) = assay: Test A postemergence; settings: Zea mays, post-emergence, 240 h
How it was run: as §1

[3] = test system: Galium (catchweed bedstraw, Galium aparine); assay: Test A postemergence; settings: Galium, post-emergence, 240 h
How it was run: as §1

[4] = test system: pigweed (Amaranthus retroflexus); assay: Test A postemergence; settings: Amaranthus retroflexus, post-emergence, 240 h
How it was run: as §1

[5] = test system: blackgrass (Alopecurus myosuroides); assay: Test A postemergence; settings: Alopecurus myosuroides, post-emergence, 240 h
How it was run: as §1

[6] = test system: barnyardgrass (Echinochloa crus-galli); assay: Test A postemergence; settings: Echinochloa crus-galli, post-emergence, 240 h
How it was run: as §1

[7] = test system: ragweed (common ragweed, Ambrosia elatior); assay: Test A postemergence; settings: Ambrosia artemisiifolia, post-emergence, 240 h
How it was run: as §1

Kochia (Kochia scoparia) [8] = assay: Test A postemergence; settings: Bassia scoparia, post-emergence, 240 h
How it was run: as §1

[9] = test system: giant foxtail (Setaria faberii); assay: Test A postemergence; settings: Setaria faberi, post-emergence, 240 h
How it was run: as §1

[10] = test system: ryegrass, Italian (Italian ryegrass, Lolium multiflorum); assay: Test A preemergence; settings: Lolium multiflorum, pre-emergence, 240 h, Preemergence
How it was run: as §1

[11] = test system: pigweed (Amaranthus retroflexus); assay: Test A preemergence; settings: Amaranthus retroflexus, pre-emergence, 240 h, Preemergence
[12] = test system: barnyardgrass (Echinochloa crus-galli); assay: Test A preemergence; settings: Echinochloa crus-galli, pre-emergence, 240 h, Preemergence
How it was run: as §1

[13] = test system: ragweed (common ragweed, Ambrosia elatior); assay: Test A preemergence; settings: Ambrosia artemisiifolia, pre-emergence, 240 h, Preemergence
How it was run: as §1

Kochia (Kochia scoparia) [14] = assay: Test A preemergence; settings: Bassia scoparia, pre-emergence, 240 h, Preemergence
How it was run: as §1

[15] = test system: giant foxtail (Setaria faberii); assay: Test A preemergence; settings: Setaria faberi, pre-emergence, 240 h, Preemergence
How it was run: as §1

rice (Oryra sativa) = assay: Test B flooded paddy test; settings: Oryza sativa, 250 g ai/ha, Flood; 0 to 100 scale where 0 is no effect and 100 is complete control; read-out: Rice plant response rating
How it was run: (§2)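 Response scored visually against untreated controls, 0 = no effect and 100 = complete control, 13–15 d after treatment in the greenhouse. Compounds added to paddy water held 3 cm above soil surface. Treatment given at 2-leaf stage.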

[16] = test system: barnyardgrass (Echinochloa crus-galli); assay: Test B flooded paddy test; settings: Echinochloa crus-galli, 250 g ai/ha, Flood; 0 to 100 scale where 0 is no effect and 100 is complete control; read-out: Barnyardgrass plant response rating
How it was run: as §2

[17] = test system: ducksalad (Heteranthera limosa); assay: Test B flooded paddy test; settings: Heteranthera limosa, 250 g ai/ha, Flood; 0 to 100 scale where 0 is no effect and 100 is complete control; read-out: Ducksalad plant response rating
How it was run: as §2

[18] = test system: sedge, umbrella (small-flower umbrella sedge, Cyperus difformis); assay: Test B flooded paddy test; settings: Cyperus difformis, 250 g ai/ha, Flood; 0 to 100 scale where 0 is no effect and 100 is complete control; read-out: Sedge, Umbrella plant response rating
How it was run: as §2

CSc1ccccc1NC(=O)[C@H]1C(=O)N(C)C[C@@H]1c1ccc(C(F)(F)F)cn1 [Compound 1051]
30%: pest or weed control at 31 g/ha ([3]; Postemergence, 31 g ai/ha, visual injury after approx. 10 d, 0 to 100 scale, 0 no effect, 100 complete control, read-out: Plant response rating, Galium) | pest or weed control at 31 g/ha ([15]; 31 g ai/ha, 0 to 100 scale (0 no effect, 100 complete control), read-out: Plant response rating, Foxtail, Giant)
90%: pest or weed control at 125 g/ha ([15]; 125 g ai/ha, visual injury rating after approximately 10 d, read-out: Foxtail, Giant plant response rating (0 to 100 scale, 0 is no effect, 100 is complete control))
20%: pest or weed control at 125 g/ha ([12]; 125 g ai/ha, visual injury rating after approximately 10 d, read-out: Barnyardgrass plant response rating (0 to 100 scale, 0 is no effect, 100 is complete control))
50%: pest or weed control at 125 g/ha ([3]; 125 g ai/ha, postemergence, visual injury on 0 to 100 scale (0 no effect, 100 complete control), approx. 10 d, read-out: Galium plant response rating)
75%: pest or weed control at 250 g/ha [17]
40%: pest or weed control at 125 g/ha ([11]; 125 g ai/ha, visual injury rating after approximately 10 d, read-out: Pigweed plant response rating (0 to 100 scale, 0 is no effect, 100 is complete control))
0%: plant injury at 125 g/ha ([1]; 125 g ai/ha, postemergence, visual injury on 0 to 100 scale (0 no effect, 100 complete control), approx. 10 d, read-out: Wheat plant response rating) | plant injury at 31 g/ha ([1]; Postemergence, 31 g ai/ha, visual injury after approx. 10 d, 0 to 100 scale, 0 no effect, 100 complete control, read-out: Plant response rating, Wheat) | pest or weed control at 125 g/ha ([2]; 125 g ai/ha, postemergence, visual injury on 0 to 100 scale (0 no effect, 100 complete control), approx. 10 d, read-out: Ryegrass, Italian plant response rating) | pest or weed control at 31 g/ha ([2]; Postemergence, 31 g ai/ha, visual injury after approx. 10 d, 0 to 100 scale, 0 no effect, 100 complete control, read-out: Plant response rating, Ryegrass, Italian) | plant injury at 125 g/ha (corn (Zea mays); 125 g ai/ha, postemergence, visual injury on 0 to 100 scale (0 no effect, 100 complete control), approx. 10 d, read-out: Corn plant response rating) | Corn plant response rating (crop injury, 0 = no effect, 100 = complete kill) at 31 g/ha (corn (Zea mays); Postemergence, 31 g ai/ha, visual injury after approx. 10 d, 0 to 100 scale, 0 no effect, 100 complete control) | pest or weed control at 125 g/ha ([4]; 125 g ai/ha, postemergence, visual injury on 0 to 100 scale (0 no effect, 100 complete control), approx. 10 d, read-out: Pigweed plant response rating) | pest or weed control at 31 g/ha ([4]; Postemergence, 31 g ai/ha, visual injury after approx. 10 d, 0 to 100 scale, 0 no effect, 100 complete control, read-out: Plant response rating, Pigweed) | pest or weed control at 125 g/ha ([5]; 125 g ai/ha, postemergence, visual injury on 0 to 100 scale (0 no effect, 100 complete control), approx. 10 d, read-out: Blackgrass plant response rating) | pest or weed control at 31 g/ha ([5]; Postemergence, 31 g ai/ha, visual injury after approx. 10 d, 0 to 100 scale, 0 no effect, 100 complete control, read-out: Plant response rating, Blackgrass) | pest or weed control at 125 g/ha ([6]; 125 g ai/ha, postemergence, visual injury on 0 to 100 scale (0 no effect, 100 complete control), approx. 10 d, read-out: Barnyardgrass plant response rating) | pest or weed control at 31 g/ha ([6]; Postemergence, 31 g ai/ha, visual injury after approx. 10 d, 0 to 100 scale, 0 no effect, 100 complete control, read-out: Plant response rating, Barnyardgrass) | pest or weed control at 125 g/ha ([7]; 125 g ai/ha, postemergence, visual injury on 0 to 100 scale (0 no effect, 100 complete control), approx. 10 d, read-out: Ragweed plant response rating) | pest or weed control at 31 g/ha ([7]; Postemergence, 31 g ai/ha, visual injury after approx. 10 d, 0 to 100 scale, 0 no effect, 100 complete control, read-out: Plant response rating, Ragweed) | pest or weed control at 125 g/ha (Kochia (Kochia scoparia) [8]; 125 g ai/ha, postemergence, visual injury on 0 to 100 scale (0 no effect, 100 complete control), approx. 10 d, read-out: Kochia plant response rating) | pest or weed control at 31 g/ha (Kochia (Kochia scoparia) [8]; Postemergence, 31 g ai/ha, visual injury after approx. 10 d, 0 to 100 scale, 0 no effect, 100 complete control, read-out: Plant response rating, Kochia) | pest or weed control at 125 g/ha ([9]; 125 g ai/ha, postemergence, visual injury on 0 to 100 scale (0 no effect, 100 complete control), approx. 10 d, read-out: Foxtail, Giant plant response rating) | pest or weed control at 31 g/ha ([9]; Postemergence, 31 g ai/ha, visual injury after approx. 10 d, 0 to 100 scale, 0 no effect, 100 complete control, read-out: Plant response rating, Foxtail, Giant) | pest or weed control at 31 g/ha ([10]; 31 g ai/ha, 0 to 100 scale where 0 is no effect and 100 is complete control, read-out: Ryegrass, Italian plant response rating) | pest or weed control at 125 g/ha ([10]; 125 g ai/ha, visual injury rating after approximately 10 d, read-out: Ryegrass, Italian plant response rating (0 to 100 scale, 0 is no effect, 100 is complete control)) | pest or weed control at 31 g/ha ([11]; 31 g ai/ha, 0 to 100 scale where 0 is no effect and 100 is complete control, read-out: Pigweed plant response rating) | pest or weed control at 31 g/ha ([12]; 31 g ai/ha, 0 to 100 scale (0 no effect, 100 complete control), read-out: Plant response rating, Barnyardgrass) | pest or weed control at 31 g/ha ([13]; 31 g ai/ha, 0 to 100 scale where 0 is no effect and 100 is complete control, read-out: Ragweed plant response rating) | pest or weed control at 125 g/ha ([13]; 125 g ai/ha, visual injury rating after approximately 10 d, read-out: Ragweed plant response rating (0 to 100 scale, 0 is no effect, 100 is complete control)) | pest or weed control at 31 g/ha (Kochia (Kochia scoparia) [14]; 31 g ai/ha, 0 to 100 scale where 0 is no effect and 100 is complete control, read-out: Kochia plant response rating) | pest or weed control at 125 g/ha (Kochia (Kochia scoparia) [14]; 125 g ai/ha, visual injury rating after approximately 10 d, read-out: Kochia plant response rating (0 to 100 scale, 0 is no effect, 100 is complete control)) | pest or weed control at 250 g/ha (rice (Oryra sativa)) | pest or weed control at 250 g/ha [16] | pest or weed control at 250 g/ha [18]
